Where two headings read alike, the source gives them in different places.
Legend:
[1] = tested on: surgery patients at the age of 20 or older and younger than 65; details: in vivo
patients = assay: Clinical trials of the Examples taken together (85 cases of patients in total); details: dosing regimen of the invention, amount per kg equal to or more than in the preceding animal tests
[2] = tested on: surgery patients at the age of 65 or older; details: in vivo
[3] = tested on: non-human animal (for example, a monkey); assay: Continuous intravenous administration to a non-human animal, vasostimulant; format: in vivo; details: continuous i.v. 1 mg/kg/h to 2 mg/kg/h for several hours (4 to 6 hours), in the neighborhood of an effective dose
Text: It can be said that this is an astonishingly excellent effect provided by the dosing regimen of the invention.

[4] = tested on: surgery patients at the age of 65 or older; details: in vivo; remark: listed apart in the source
[5] = tested on: surgery patients at the age of 20 or older and younger than 65; details: in vivo; remark: listed apart in the source

COC(=O)CC[C@@H]1N=C(c2ccccn2)c2cc(Br)ccc2-n2c(C)cnc21.O=S(=O)(O)c1ccccc1 [Compound B, Methyl 3-[(4S)-8-bromo-1-methyl-6-(2-pyridinyl)-4H-imidazo[1,2-a][1,4]benzodiazepin-4-yl]propanoate benzenesulfonate]
Other side effects to be concerned or abnormal laboratory data [1]: not observed | Vasostimulant (patients): does not cause the vasostimulant | Completion rate of endotracheal intubation [2]: 100% | Other side effects to be concerned or abnormal laboratory data [2]: not observed | Vasostimulant [3]: vasostimulant is observed | Number of test subjects who developed hypotension, adverse event ([4]; human): 3 Patients | Proportion of test subjects who developed hypotension as a side effect ([4]; human): 20% | Average time until the patient opened eyes [4]: 10.9 min | Average time until the patient stated the date of birth [4]: 18.5 min | Average time until the patient were allowed to leave the surgery room [4]: 19.1 min | Average time until the trachea was extubated [4]: 13.6 min | Other side effects to be concerned or abnormal laboratory data [4]: not observed | Recollection during anesthesia ([4]; 1 mg/kg): no recollection | Salvage treatment for sedation during surgery ([4]; 1 mg/kg): without performing a salvage treatment | Signs of awakening during the surgery ([4]; 1 mg/kg): not observed | Completion rate of endotracheal intubation ([4]; 4 mg/kg): 100% | Time until loss of consciousness (range of actual values) ([4]; 4 mg/kg): (70-135) sec | Number of test subjects who developed hypotension, adverse event ([5]; human): 3 patients | Proportion of test subjects who developed hypotension as a side effect ([5]; human): 10% | Average time until the patient opened eyes [5]: 13.9 min | Average time until the patient stated the date of birth [5]: 21.5 min | Average time until the patient were allowed to leave the surgery room [5]: 25.5 min | Average time until the trachea was extubated [5]: 16.4 min | Other side effects to be concerned or abnormal laboratory data [5]: not observed | Recollection during anesthesia ([5]; 1 mg/kg): no recollection | Salvage treatment for sedation during surgery ([5]; 1 mg/kg): without performing a salvage treatment | Signs of awakening during the surgery ([5]; 1 mg/kg): not observed | Completion rate of endotracheal intubation ([5]; 12 mg/kg): 100% | Time until loss of consciousness (range of actual values) ([5]; 12 mg/kg): (48-120) sec
